Where a name gives a salt, the structure may show the parent alone. Read-outs that look alike come from different tables or passages of the source.

The target in experiment [1] is T1, SARS-CoV-2 PLpro (nsp3 1564–1878) (Severe acute respiratory syndrome coronavirus 2, UniProt P0DTD1). The experiment can be described thus: biochemical. Set-up: FRET-quenched peptide (Pro3) cleavage by PLpro, 10 min pre-incubation, slope over 20 min, normalised to no-compound control. As to conditions: low concentration screen, read-out: % of control remaining.
Experiment [2] deals with T1, SARS-CoV-2 PLpro (nsp3 1564–1878). The experiment can be described thus: biochemical. Details: FRET-quenched peptide (Pro3) cleavage by PLpro, 10 min pre-incubation, slope over 20 min, normalised to no-compound control. As to conditions: high concentration screen, read-out: % of control remaining.

Turning to `CN(c1ccccc1CNc1nc(Nc2ccc3c(c2)CC(=O)N3)ncc1C(F)(F)F)S(C)(=O)=O` [PF431396], the remaining activity at 1.25 µM in experiment [1] (Well no.=3033) stood at 99.3%. Further, the remaining activity at 3.75 µM in experiment [2] (Well no.=3033) turned out to be 100%.

In the case of `OCCn1cc(-c2cnc3nnn(Cc4ccc5ncccc5c4)c3n2)cn1` [PF04217903], the remaining activity at 1.25 µM in experiment [1] (Well no.=2937) was found to be 99.1%. In experiment [2] (Well no.=2937), the remaining activity at 3.75 µM is 98.4%.

As for `CC(C)C[C@H]1C(=O)O[C@H](Cc2ccccc2)C(=O)N(C)[C@@H](CC(C)C)C(=O)O[C@H](C)C(=O)N(C)[C@@H](CC(C)C)C(=O)O[C@H](Cc2ccccc2)C(=O)N(C)[C@@H](CC(C)C)C(=O)O[C@H](C)C(=O)N1C` [PF 1022A], the remaining activity at 1.25 µM in experiment [1] (Well no.=7942) turned out to be 101%. For the same compound, the remaining activity at 3.75 µM in experiment [2] (Well no.=7942) was found to be 114%.

For the compound `CS(=O)(=O)c1cccc(CNc2nc(Nc3ccc4c(c3)CCC(=O)N4)ncc2C(F)(F)F)c1` [PF 573228], the remaining activity at 1.25 µM in experiment [1] (Well no.=4712) was found to be 96.1%. For the same compound, the remaining activity at 3.75 µM in experiment [2] (Well no.=4712) came to 101%.

On to `O=C(Nc1cccnc1)N1CCC(Cc2cccc(Oc3ccc(C(F)(F)F)cn3)c2)CC1` [PF-3845], for which the remaining activity at 1.25 µM in experiment [1] (Well no.=4643) came to 96.6%. The remaining activity at 3.75 µM in experiment [2] (Well no.=4643) stood at 90.4%.

With `O=C(CCN1CCN(C(=O)OCc2cc(Cl)cc(Cl)c2)CC1)c1ccc2[nH]c(=O)oc2c1` [PF-8380], the remaining activity at 1.25 µM in experiment [1] (Well no.=7798) amounted to 104%. In addition, in experiment [2] (Well no.=7798), the remaining activity at 3.75 µM is 98.3%.

For `Cn1cc(-c2[nH]c3cc(NC(=O)[C@H](N)C4CCCCC4)cc4c3c2C=NNC4=O)cn1` [PF-477736], in experiment [1] (Well no.=4836), the remaining activity at 1.25 µM was determined as 99.5%. In experiment [2] (Well no.=4836), the remaining activity at 3.75 µM was found to be 101%.

`CC(F)(F)CN1CCOc2c(nn(-c3ccccc3Cl)c2-c2ccc(Cl)cc2)C1=O` [PF-514273]: the remaining activity at 1.25 µM in experiment [1] (Well no.=5700) turned out to be 97.7%. For the same compound, the remaining activity at 3.75 µM in experiment [2] (Well no.=5700) was 96.2%.

As to `CN(c1ncccc1CNc1nc(Nc2ccc3c(c2)CC(=O)N3)ncc1C(F)(F)F)S(C)(=O)=O` [PF-562271], the remaining activity at 1.25 µM in experiment [1] (Well no.=2699) worked out at 97.1%. For the same compound, the remaining activity at 3.75 µM in experiment [2] (Well no.=2699) turned out to be 100%.

As to `Cn1cc(-c2ccncc2)c(-c2ccc(OCc3ccc4ccccc4n3)cc2)n1` [PF-2545920], the remaining activity at 1.25 µM in experiment [1] (Well no.=8150) was determined as 101%. Also, in experiment [2] (Well no.=8150), the remaining activity at 3.75 µM is 95.7%.

For the compound `COCc1nnc(N2CC(Oc3ccc(F)cc3Cl)C2)n1-c1ccc(OC)nc1` [PF-3274167], the remaining activity at 1.25 µM in experiment [1] (Well no.=7285) is 99.6%. Besides, in experiment [2] (Well no.=7285), the remaining activity at 3.75 µM turned out to be 97.3%.

As to `Cc1cn2cc(C(=O)N(C)CCO)cc(N[C@@H]3CCOc4cccc(C)c43)c2n1` [PF-03716556], the remaining activity at 1.25 µM in experiment [1] (Well no.=6006) came out at 97.5%. In experiment [2] (Well no.=6006), the remaining activity at 3.75 µM was determined as 96%.

Consider `CC(=O)NCC(=O)N1[C@@H]2CC[C@H]1c1ccc(Nc3ncc(C(F)(F)F)c(NC4CCC4)n3)cc12` [PF-03814735], for which the remaining activity at 1.25 µM in experiment [1] (Well no.=4693) amounted to 102%. Moreover, the remaining activity at 3.75 µM in experiment [2] (Well no.=4693) turned out to be 105%.

As for `N#Cc1ccc(N2N=C3c4ccc(C(=O)O)cc4CC[C@@H]3[C@@H]2C2CCCC2)cc1Cl` [PF-03882845], the remaining activity at 1.25 µM in experiment [1] (Well no.=6063) was 96.4%. Also, the remaining activity at 3.75 µM in experiment [2] (Well no.=6063) was 94.4%.

Turning to `O=C(NCC(=O)N1CC[C@H](N[C@H]2CC[C@@](O)(c3ccc(-c4ncccn4)cn3)CC2)C1)c1cccc(C(F)(F)F)c1` [PF-4136309], the remaining activity at 1.25 µM came to 98.3% in experiment [1] (Well no.=7097) and 98% in experiment [1] (Well no.=8085). Also, the figures for the remaining activity at 3.75 µM in experiment [2] (Well no.=7097) and in experiment [2] (Well no.=8085) were 98.1% and 89%, respectively.

With `COc1ccc2cc(OCC3(C(=O)O)CN(C(=O)c4ccc(F)cc4)C3)ccc2c1` [PF-04418948], the remaining activity at 1.25 µM in experiment [1] (Well no.=7197) was 89.6%. In experiment [2] (Well no.=7197), the remaining activity at 3.75 µM was 87.9%.

On to `CN1CC[C@@H](NC(=O)Nc2ccc(C#N)cc2)C[C@@H]1c1nc2ccccc2[nH]1` [PF-04449913 maleate salt], for which, in experiment [1] (Well no.=5703), the remaining activity at 1.25 µM came out at 104%. The remaining activity at 3.75 µM in experiment [2] (Well no.=5703) came out at 99.8%.

Consider `CC(C)CNCc1ccc(-c2ccccc2S(=O)(=O)N2CCCC2)cc1` [PF-04455242 hydrochloride], for which, in experiment [1] (Well no.=5775), the remaining activity at 1.25 µM came to 106%. Also, the remaining activity at 3.75 µM in experiment [2] (Well no.=5775) turned out to be 107%.

In the case of `CCc1cncnc1N1CCN(Cc2nc3ccc(C(F)(F)F)cc3[nH]2)CC1` [PF-4708671], the remaining activity at 1.25 µM in experiment [1] (Well no.=4804) stood at 97%. Further, the remaining activity at 3.75 µM in experiment [2] (Well no.=4804) is 94.4%.

For `CC1(C)CC(=O)c2c(C(F)(F)F)nn(-c3ccc(C(N)=O)c(N[C@H]4CC[C@H](OC(=O)CN)CC4)c3)c2C1` [PF-04929113 (SNX-5422)], the remaining activity at 1.25 µM in experiment [1] (Well no.=4637) was determined as 101%. Also, the remaining activity at 3.75 µM in experiment [2] (Well no.=4637) was 105%.

As to `Cc1ccc(-c2c(-c3nn(C)c4ncnc(N5CC[C@H](N6CCCCC6)C5)c34)cnn2C)cc1` [PF-4981517], the remaining activity at 1.25 µM in experiment [1] (Well no.=4875) came to 99.5%. Further, in experiment [2] (Well no.=4875), the remaining activity at 3.75 µM was 93.8%.

As to `Cc1cnc(-c2cc(N3CCN(C(=O)CCS(C)(=O)=O)CC3)ncc2Cl)c(C)c1` [PF-5274857 hydrochloride], the remaining activity at 1.25 µM in experiment [1] (Well no.=5701) was 102%. The remaining activity at 3.75 µM in experiment [2] (Well no.=5701) is 103%.

For `Cc1cnc(-c2cc(N3CCN(C(=O)CCS(C)(=O)=O)CC3)ncc2Cl)c(C)c1` [PF-5274857], in experiment [1] (Well no.=4739), the remaining activity at 1.25 µM was found to be 99.5%. Also, the remaining activity at 3.75 µM in experiment [2] (Well no.=4739) came out at 102%.

With `O=C1CC(c2c[nH]c3ccc(F)cc23)C(=O)N1` (centres unmarked) [PF-06840003], the remaining activity at 1.25 µM in experiment [1] (Well no.=8215) was found to be 104%. For the same compound, the remaining activity at 3.75 µM in experiment [2] (Well no.=8215) turned out to be 101%.

Consider `COc1ccccc1S(=O)(=O)Nc1ccc2c(c1)CN(C)C(=O)N2` [PFI-1], for which the remaining activity at 1.25 µM in experiment [1] (Well no.=4844) was 97%. In addition, the remaining activity at 3.75 µM in experiment [2] (Well no.=4844) worked out at 88.7%.

Take `CNC(=O)c1ccc(C)c(-n2c(C)cc(OCc3ccc(F)cc3F)c(Br)c2=O)c1` [PH-797804]: in experiment [1] (Well no.=4695), the remaining activity at 1.25 µM is 104%. For the same compound, the remaining activity at 3.75 µM in experiment [2] (Well no.=4695) came out at 104%.

Regarding `Cc1[nH]c(/C=C2\C(=O)Nc3ccc(S(=O)(=O)Cc4c(Cl)cccc4Cl)cc32)c(C)c1C(=O)N1CCC[C@@H]1CN1CCCC1` [PHA 665752 - (2R)-1-[[5-[(Z)-[5-[[(2,6-Dichlorophenyl)methyl]sulfonyl]-1,2-dihydro-2-oxo-3H-indol-3-ylidene]methyl]-2,4-dimethyl-1H-pyrrol-3-yl]carbonyl]-2-(1-pyrrolidinylmethyl)pyrrolidine], the remaining activity at 1.25 µM in experiment [1] (Well no.=2590) was 96.2%. Besides, the remaining activity at 3.75 µM in experiment [2] (Well no.=2590) came out at 98.3%.

Take `CCc1cccc(CC)c1NC(=O)N1Cc2[nH]nc(NC(=O)c3ccc(N4CCN(C)CC4)cc3)c2C1` [PHA-680632]: the remaining activity at 1.25 µM in experiment [1] (Well no.=4865) is 97.9%. For the same compound, the remaining activity at 3.75 µM in experiment [2] (Well no.=4865) is 101%.

Consider `CC(C)CC(=O)Nc1n[nH]c2c1CN(C(=O)C1CCN(C)CC1)C2(C)C` [PHA-793887], for which the remaining activity at 1.25 µM in experiment [1] (Well no.=4907) is 94.3%. Also, in experiment [2] (Well no.=4907), the remaining activity at 3.75 µM is 93.7%.

Take `O=C(Nc1ccccc1)[C@@]12C[C@@H]1/C(=N\O)c1ccccc1O2` [PHCCC]: in experiment [1] (Well no.=8571), the remaining activity at 1.25 µM was found to be 107%. Besides, the remaining activity at 3.75 µM in experiment [2] (Well no.=8571) was 105%.

These data come from paper PMC8286840, “Identifying SARS-CoV-2 antiviral compounds by screening for small molecule inhibitors of Nsp3 papain-like protease” (Biochemical Journal, 2021).
